These results are taken from patent EP4737445A1, “NOVEL SATURATED HETEROCYCLE-SUBSTITUTED HETEROARYL-CARBONOHYDRAZONOYL DICYANIDE COMPOUND AND USE THEREOF” (Korea Institute of Science and Technology, priority 2023, dated 2025).

The target of one data set is T1, tau (Homo sapiens, UniProt P10636, P618L).
T1 construct: BiFC fluorescent-protein fragments (two complementary halves); from tissue; host or cells: brain of TauP301L-BiFC transgenic mice
As to the kind of experiment: Tau-BiFC fluorescence imaging of brain tissue (tau oligomer/aggregate formation). The class given is in vivo. Particulars: TauP301L-BiFC mice; oral 10 mg/kg, 19 weeks; vehicle = 100%. The method, then: After oral administration of Compounds 6, 16, and 20 and completion of behavioral experiments, 13.2-month-old TauP301L-BiFC mice were sacrificed to proceed with brain tissue extraction and [2] brain lysate separation and purification. • [1] First, brain tissue extraction, BiFC fluorescence imaging of brain tissue, and tau phosphorylation antibody immunofluorescence were performed through the following process. TauP301L-BiFC mice were perfused with 0.9% saline and fixed with PBS (pH 7.4) solution containing 4% paraformaldehyde. The brain was extracted and fixed in PBS containing 4% paraformaldehyde at 4°C for 48 to 72 hours. For cryoprotection, the brain was transferred to PBS containing 30% sucrose solution and stored at 4°C until it sank. For frozen sectioning, the brain was immersed in O.C.T (Tissue-TEK) and frozen, and then continuously cut using a brain tissue sectioner. Tissue sections with a thickness of 30 µm were stored in PBS containing 0.05% sodium azide at 4°C.
Brain tissue sections (n=10 per group) were placed on slides, stained with Sudan Black B solution (70% ethanol containing 0.05% Sudan Black B) for 10 minutes to reduce autofluorescence, washed 3 times with PBS containing 0.1% Triton X-100, and then washed with distilled water. For nuclear staining, brain tissue sections were stained with Hoechst (0.5 µg/mL) for 30 minutes. BiFC fluorescence (λex=460-490 nm and λem=500-550 nm) images were acquired using Axio Scan.Z1 (ZEISS). For quantitative analysis, the average BiFC-fluorescence intensity was measured in the somatosensory cortex (layer V) and hippocampus CA1, and the habenular region was used as a control region to reduce background fluorescence differences between brain samples. ImageJ software (NIH) was used to mark regions of interest and calculate fluorescence intensity values, and the data were expressed as the average fluorescence intensity and standard deviation of brain tissue images from 10 mice per group.
As a result of Tau-BiFC fluorescence imaging of four regions of total brain tissue (hippocampus (CA1), somatosensory cortex, cerebellum, brainstem), the degree of Tau-BiFC fluorescence appearing as tau aggregation early oligomer formation and aggregate formation was as follows: • (1) Hippocampus (CA1), vehicle = 100%, #20= 79%, p<0.05, #6= 80%, p<0.05, #16= 72%, p<0.001. • (2) Sensory cortex (SCTX), vehicle = 100%, #20= 72%, p<0.05, #6= 73%, p<0.05, #16= 66%, p<0.01. • (3) Cerebellum (CB), vehicle = 100%, #20= 64%, p<0.05, #6= 68%, ns, #16= 76%, n.s. • (4) Brain stem, vehicle = 100%, #20= 60%, p<0.05, #6= 62%, p<0.05, #16= 60%, p<0.05.

The nature of data set [1]: Liver microsomal stability, mouse. It counts as in vitro ADME. Particulars: 1 µM compound; 0.5 mg/mL microsomes; NADPH; 30 minutes at 37°C. How it is done:
Liver microsomal stability by the compounds prepared according to Examples 1 to 46 was confirmed. Specifically, four types of liver microsomes (human, dog, rat, and mouse each at 0.5 mg/mL), 0.1 M phosphate buffer solution (pH 7.4), and the compounds at 1 µM concentration were added and pre-incubated at 37°C for 5 minutes, and then NADPH generation system solution was added and incubated at 37°C for an additional 30 minutes. Thereafter, an acetonitrile solution containing an internal standard (chloropropamide) was added to terminate the reaction, and after centrifugation for 5 minutes (14,000 rpm, 4°C), the supernatant was injected into an LC-MS/MS system to analyze the substrate drug, thereby evaluating the metabolic stability of 8 compounds.
The amount of remaining substrate through the reaction was analyzed using a Shimadzu Nexera XR system and TSQ vantage (Thermo). A Kinetex XB-C18 (2.1 × 100 mm, 2.6 µm, particle size; Phenomenex, USA) was used as the HPLC column, and (A) distilled water containing 0.1% formic acid and (B) acetonitrile containing 0.1% formic acid were used as mobile phases. Analyst software (version 1.6.3) and Xcalibur (version 1.6.1) were used for data analysis. The calculated results are shown in Table 5 below: Liver microsomal stability data of novel compounds from […] (human, rat, and mouse).

The target of the next data set is T2, TDP-43 protein (Homo sapiens, UniProt Q13148).
T2 construct: BiFC fluorescent-protein fragments (two complementary halves); expressed in transfected cells
As to the kind of experiment: TDP-43 aggregation inhibition in TDP-43-BiFC cell model (Forskolin-induced). The class given is cell-based. Particulars: for inhibition at 3 µM: read-out: TDP-43 protein aggregation inhibitory effect: Aggregation inhibitory effect (%) (@3 uM). The essentials:
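Forskolin (30 µM) co-treated with compound (screen 3 and 10 µM; dose-response 0.003–10 µM) for 48 h. BiFC fluorescence normalised to Forskolin-only (100% aggregation) minus untreated; viability from Hoechst-stained nuclei count vs Forskolin-only. IC50 by nonlinear regression.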

T1 sequence (P10636 1-441 isoform P10636-8 P301L): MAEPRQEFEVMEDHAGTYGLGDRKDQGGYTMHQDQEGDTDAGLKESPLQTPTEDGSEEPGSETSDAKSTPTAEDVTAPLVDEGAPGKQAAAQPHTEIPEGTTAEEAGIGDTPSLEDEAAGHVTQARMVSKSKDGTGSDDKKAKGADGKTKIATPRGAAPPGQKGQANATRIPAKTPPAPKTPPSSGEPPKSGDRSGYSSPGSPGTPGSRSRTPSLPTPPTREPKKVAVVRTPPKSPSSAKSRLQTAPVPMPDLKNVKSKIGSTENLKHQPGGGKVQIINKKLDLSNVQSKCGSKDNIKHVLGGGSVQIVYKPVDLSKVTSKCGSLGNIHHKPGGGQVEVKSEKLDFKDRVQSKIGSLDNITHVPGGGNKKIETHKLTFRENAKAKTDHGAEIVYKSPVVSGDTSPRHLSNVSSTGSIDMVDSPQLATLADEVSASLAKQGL
T2 sequence (Q13148 whole entry, the tested form may be a part): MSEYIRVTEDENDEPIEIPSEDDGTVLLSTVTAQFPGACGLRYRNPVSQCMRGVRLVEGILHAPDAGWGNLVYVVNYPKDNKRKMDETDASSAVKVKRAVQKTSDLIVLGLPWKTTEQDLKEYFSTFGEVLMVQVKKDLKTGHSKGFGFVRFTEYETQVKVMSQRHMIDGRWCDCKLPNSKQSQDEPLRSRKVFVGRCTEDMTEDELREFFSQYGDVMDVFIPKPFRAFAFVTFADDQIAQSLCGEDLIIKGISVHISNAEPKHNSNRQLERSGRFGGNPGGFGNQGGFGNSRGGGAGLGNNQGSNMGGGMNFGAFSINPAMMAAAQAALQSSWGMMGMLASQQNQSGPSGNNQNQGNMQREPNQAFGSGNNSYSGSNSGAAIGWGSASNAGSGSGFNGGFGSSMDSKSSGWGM

Consider `Cn1c(N2CCOCC2)nc2cc(NN=C(C#N)C#N)ccc21` [Compound 6, (1-methyl-2-morpholino-1H-benzo[d]imidazol-5-yl)carbonohydrazonoyl dicyanide], for which, on tau, the “Tau-BiFC fluorescence, Brain stem” value is listed as 62%; the “Tau-BiFC fluorescence, Cerebellum (CB)” value is recorded as 68%; the “Tau-BiFC fluorescence, Hippocampus (CA1)” value is 80%; the “Tau-BiFC fluorescence, Sensory cortex (SCTX)” value (shortened to “Tau-BiFC fluorescence … (SCTX)”) was 73%. Also, in data set [1], the “Mouse microsomes (% remaining)” value was determined as 87.3 % remaining. Moreover, the inhibition at 3 µM on TDP-43 protein turned out to be 97.4%.
`CC1COCCN1c1nc2ccc(NN=C(C#N)C#N)cc2o1` (stereo not drawn) [Compound 16, (2-(3-methylmorpholino)benzo[d]oxazol-6-yl)carbonohydrazonoyl dicyanide]: at tau, the “Tau-BiFC fluorescence, Brain stem” value is on record as 60%; the “Tau-BiFC fluorescence, Cerebellum (CB)” value worked out at 76%; the “Tau-BiFC fluorescence, Hippocampus (CA1)” value was 72%; the “Tau-BiFC fluorescence … (SCTX)” value is recorded as 66%. For the same compound, in data set [1], the “Mouse microsomes (% remaining)” value turned out to be 89.5 % remaining. Moreover, the inhibition at 3 µM on TDP-43 protein is 100%.
Turning to `N#CC(C#N)=NNc1ccc2nc(N3C4CCC3COC4)oc2c1` [Compound 20, (2-(3-oxa-8-azabicyclo[3.2.1]octan-8-yl)benzo[d]oxazol-6-yl)carbonohydrazonoyl dicyanide], at tau, the “Tau-BiFC fluorescence, Brain stem” value came out at 60%; the “Tau-BiFC fluorescence, Cerebellum (CB)” value is 64%; the “Tau-BiFC fluorescence, Hippocampus (CA1)” value is reported as 79%; the “Tau-BiFC fluorescence … (SCTX)” value was determined as 72%. Moreover, the “Mouse microsomes (% remaining)” value in data set [1] was determined as 95.4 % remaining. Moreover, on TDP-43 protein, the IC50 was 140 nM and the inhibition at 3 µM was determined as 91.7%.
For the compound `Cn1c(N2C3CCC2COC3)nc2ccc(NN=C(C#N)C#N)cc21` [Compound 34, (2-(3-oxa-8-azabicyclo[3.2.1]octan-8-yl)-1-methyl-1H-benzo[d]imidazol-6-yl)carbonohydrazonoyl dicyanide], in data set [1], the “Mouse microsomes (% remaining)” value is 78.2 % remaining. Besides, on TDP-43 protein, the IC50 was found to be 10 nM and the inhibition at 3 µM was 82.4%.
Take `Cn1c(N2C3CCC2COC3)nc2cc(NN=C(C#N)C#N)ccc21` [Compound 35, (2-(3-oxa-8-azabicyclo[3.2.1]octan-8-yl)-1-methyl-1H-benzo[d]imidazol-5-yl)carbonohydrazonoyl dicyanide]: in data set [1], the “Mouse microsomes (% remaining)” value was 95.1 % remaining. At TDP-43 protein, the IC50 is 192 nM and the inhibition at 3 µM was 62.9%.
For the compound `N#CC(C#N)=NNc1ccc2nc(NC(=O)N3CCOCC3)sc2c1` [Compound 38, (2-(morpholine-4-carboxamido)benzo[d]thiazol-6-yl)carbonohydrazonoyl dicyanide], the “Mouse microsomes (% remaining)” value in data set [1] was determined as 86.1 % remaining. Besides, the inhibition at 3 µM on TDP-43 protein is 49.6%.
On to `CC1CN(C(=O)Nc2nc3ccc(NN=C(C#N)C#N)cc3s2)CC(C)O1` (stereo not drawn) [Compound 39, (2-(2,6-dimethylmorpholine-4-carboxamido)benzo[d]thiazol-6-yl)carbonohydrazonoyl dicyanide], for which the “Mouse microsomes (% remaining)” value in data set [1] was 88.4 % remaining. Also, the inhibition at 3 µM on TDP-43 protein worked out at 58.7%.
Consider `N#CC(C#N)=NNc1ccc2nc(NC(=O)N3CC4CCC(C3)O4)sc2c1` [Compound 40, (2-(8-oxa-3-azabicyclo[3.2.1]octane-3-carboxamido)benzo[d]thiazol-6-yl)carbonohydrazonoyl dicyanide], for which, in data set [1], the “Mouse microsomes (% remaining)” value came out at 93.4 % remaining. Also, the inhibition at 3 µM on TDP-43 protein was 67.7%.
With `N#CC(C#N)=NNc1ccc2nc(N3CC[C@@H](F)C3)oc2c1` [Compound 41, (R)-(2-(3-fluoropyrrolidin-1-yl)benzo[d]oxazol-6-yl)carbonohydrazonoyl dicyanide], the “Mouse microsomes (% remaining)” value in data set [1] worked out at 65.3 % remaining. Also, on TDP-43 protein, the inhibition at 3 µM was determined as 87.8%.
